The source of these data is PMC9608663, “Anti-Alzheimer and Antioxidant Effects of Nelumbo nucifera L. Alkaloids, Nuciferine and Norcoclaurine in Alloxan-Induced Diabetic Albino Rats” (Pharmaceuticals, 2022).

Assay [1] concerns glutathione peroxidase (GPx). Description: Glutathione peroxidase assay (GSH-Px) in blood of diabetic rats. Particulars: 10 mg/kg, 15 days. In kind it is in vivo, albino rats (Sprague–Dawley). As for the experimental part:
(§1) The rats were divided into seven groups (six rats in each group). Normal and diabetic control groups I and II, standard glibenclamide (10 mg/kg) group III, N. nucifera crude (100–200 mg/kg) groups IV and V and nuciferine and norcoclaurine (10 mg/kg) group VI and VII. Rats were anesthetized after 15 days and their organ sections were collected for different activities. Blood was collected from each rat and centrifuged at 4000 rpm for 10 min for antioxidant enzyme activities. The brain was homogenized in 100 mM Tris buffer (Sigma, Hamburg, Germany) (pH 8.0).
Glutathione peroxidase assay was carried out by reaction mixtures of 0.1 mL blood serum with 1.49 mL phosphate buffer (pH 7.4), 0.1 mL EDTA, 0.1 mL sodium azide, 0.1 mL NADPH, 0.05 mL GSH and 0.01 mL H2O2. The intensity of color loss of NADPH was measured at 340 nm.

Assay [2] relates to reduced glutathione (GSH). Put plainly: Reduced glutathione assay (GSH) in blood of diabetic rats. The class given is in vivo, albino rats (Sprague–Dawley). The following applies: 10 mg/kg, 15 days. As to the method: as §1
GSH assay was carried out by mixing the blood serum with substrate DTNB by the modified method of Biessels.

The test system of assay [3] is alloxan-induced diabetic rats. Put plainly: Blood glucose level in alloxan-induced diabetic rats. In kind it is in vivo, albino rats (Sprague–Dawley). The following applies: 10 mg/kg b.w./day. As for the experimental part: (§2) Forty-two (42) fully matured albino rats (200–250 g b.w.) of Sprague–Dawley types were purchased from National Institute of Health, Islamabad, Pakistan and kept under normal conditions for 15 days with 12-h dark/light rotation.
(§3) Alloxan monohydrate injection (100 mg/kg) was applied to experimental rats to induce diabetic conditions followed by giving 5% glucose water for 28 h in order to decrease the death probability in alloxan-induced rates from hyperglycemic shock. Over 300 mg/dL (3 mg/mL) blood glucose level (fasting blood plasma) was considered diabetic and a selective parameter for further study.
as §1

For assay [4], the system named is superoxide dismutase (SOD). Description: Superoxide dismutase assay (SOD) in blood of diabetic rats. The class given is in vivo, albino rats (Sprague–Dawley). Particulars: 10 mg/kg, 15 days. As to the method: as §1
Superoxide dismutase activity was determined by an assay mixture containing 0.3 mL blood sample, 1.2 mL sodium pyrophosphate, 0.1 mL phenazine methosulphate and 0.2 mL NADH. The reaction was stopped within a minute by adding 1 mL of glacial acetic acid and the concentration of product was monitored at 560 nm.

Assay [5] addresses T1, acetylcholinesterase (AChE) (Rattus norvegicus, UniProt P37136).
T1 construct: from tissue; host or cells: rat brain homogenate (cerebral cortex, cerebellum, hypothalamus, striatum, hippocampus)
T1 sequence (P37136 32-614): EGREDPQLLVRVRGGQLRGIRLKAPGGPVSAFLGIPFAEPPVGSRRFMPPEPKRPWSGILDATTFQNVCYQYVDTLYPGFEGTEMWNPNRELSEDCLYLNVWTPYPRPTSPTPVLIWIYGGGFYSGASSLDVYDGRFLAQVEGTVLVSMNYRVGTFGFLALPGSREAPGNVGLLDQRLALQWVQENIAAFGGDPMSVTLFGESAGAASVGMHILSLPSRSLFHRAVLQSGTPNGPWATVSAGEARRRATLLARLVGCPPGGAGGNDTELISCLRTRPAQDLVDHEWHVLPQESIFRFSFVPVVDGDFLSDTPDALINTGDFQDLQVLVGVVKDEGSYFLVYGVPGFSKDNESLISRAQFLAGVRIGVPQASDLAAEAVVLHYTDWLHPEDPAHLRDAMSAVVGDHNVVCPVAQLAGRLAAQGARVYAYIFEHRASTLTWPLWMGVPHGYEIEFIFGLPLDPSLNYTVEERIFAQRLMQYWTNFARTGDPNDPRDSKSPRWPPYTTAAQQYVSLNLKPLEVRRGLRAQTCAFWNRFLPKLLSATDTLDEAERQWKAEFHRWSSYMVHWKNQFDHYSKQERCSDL
Put plainly: AChE activity in brain regions of diabetic rats. The class given is in vivo. Particulars: 10 mg/kg, 15 days; for AChE activity, Cerebellum: cerebellum homogenate; for AChE activity, Cerebral Cortex: cerebral cortex homogenate; for AChE activity, Hippocampus: hippocampus homogenate; for AChE activity, Hypothalamus: hypothalamus homogenate; for AChE activity, Striatum: striatum homogenate. As for the experimental part:
as §1
(§4) In the brain (hippocampus, cerebellum, hypothalamus, striatum and cerebral cortex) and in the blood, AChE activity was measured using calorimetric method with slight modification. The sample of 0.1 mL brain homogenate as well as blood serum (containing 100 mM potassium phosphate buffer (pH 7.5), 1 mM DTNB and 0.8 mM […] (Sigma, Hamburg, Germany) were tested as AChE enzyme. The increase in enzyme activity was measured at 412 nm after the formation of the yellow-colored anion of 4, 4-ditheo-bis-nitrobenzoic acid and experiments were performed in triplicates.

In assay [6] the test system is catalase (CAT). Put plainly: Catalase assay (CAT) in blood of diabetic rats. In kind it is in vivo, albino rats (Sprague–Dawley). Particulars: 10 mg/kg, 15 days. As to the method:
as §1, with “8.0). Protein variation for several brain structures was measured followed by protein determination of striatum (0.3 mg/mL), hippocampus (0.6.0 mg/mL), cerebellum (0.7 mg/mL) and hypothalamus (0.4 mg/mL and cerebral cortex (0.8.0 mg/mL)).” for “8.0).”
Catalase activity was determined in blood samples by modified method of Chance and Maehly. The assay mixture comprised 0.1 mL blood serum, 2.5 mL phosphate buffer (pH 5) and 0.4 mL H2O2 while the absorbance was measured at 240 nm.

In assay [7] the test system is acetylcholinesterase (AChE). The class given is in vivo. Particulars: blood of diabetic rats, 10 mg/kg, 15 days; table title: AChE activity, µmol AcSCh/h/mg of protein. As for the experimental part:
as §1, §4

Assay [8] can be described thus: Body weight of alloxan-induced diabetic rats. The following applies: 10 mg/kg b.w./day. In kind it is in vivo, albino rats (Sprague–Dawley). As to the method:
as §2, §3, §1

The subject of assay [9] is lipid peroxidation (TBARS). Put plainly: Lipid peroxidation assay (TBARS) in blood of diabetic rats. In kind it is in vivo, albino rats (Sprague–Dawley). Particulars: 10 mg/kg, 15 days. As for the experimental part: as §1
The lipid peroxidation activity in the blood sample was determined by slight modification in Sohal’s method. The reaction mixtures containing homogenate sample (0.2 mL) in 0.1 M phosphate buffer pH 7.4 (0.58 mL), ferric chloride (0.02 mL) and ascorbic acid (0.2 mL). The reaction mixture was incubated at […] for 1 h and stopped the reaction by adding 10% trichloro-acetic acid. The reaction mixture was continuously boiled, shaken for 20 min in a water bath and centrifuged for 10 min. The formation of TBARS was monitored at wavelength of 535 nm.

Where “and” joins values, the source holds several entries; their conditions need not be identical. Equal values may be shown once.

Take `Oc1ccc(CC2NCCc3cc(O)c(O)cc32)cc1` (stereo not shown) [norcoclaurine]: the GPx in [1] is 6.70 ± 0.89 nmol NADPH/min/mg Protein. In assay [2], the GSH is 76.68 ± 0.4 GSH/mg Protein. The “Blood Glucose Level” value in [3] (day 0) came to 2.10 ± 4.67 mg/mL; in [3] (day 5), 1.70 ± 3.25 mg/mL; in assay [3] (day 10) it was 1.58 ± 1.43 mg/mL; in assay [3] (day 15), 1.08 ± 3.15 mg/mL. This compound displayed an SOD in assay [4] of 6.2 ± 0.7 SOD/mg Protein. The “AChE activity, Cerebellum” value in assay [5] is given as 57 ± 1.40 µmol AcSCh/h/mg of protein. Also, the “AChE activity, Cerebral Cortex” value in assay [5] was 60 ± 0.80 µmol AcSCh/h/mg of protein. For the same compound, the “AChE activity, Hippocampus” value in assay [5] is on record as 48 ± 0.20 µmol AcSCh/h/mg of protein. The “AChE activity, Hypothalamus” value in [5] is recorded as 60 ± 4.30 µmol AcSCh/h/mg of protein. In addition, the “AChE activity, Striatum” value in assay [5] was 56 ± 0.90 µmol AcSCh/h/mg of protein. Also, in assay [6], the CAT was 5.1 ± 0.3 E/min/mg Protein. The compound also gave an AChE activity in assay [7] of 55 ± 1.23 %. For the same compound, the “Variations in Body Weight” value is on record as 178.22 ± 7.61 g in assay [8] (day 0); 159.85 ± 1.34 g in assay [8] (day 5); 169.11 ± 3.01 g in assay [8] (day 10); 178.91 ± 1.32 g in [8] (day 15, 10 mg/kg/day). Besides, the TBARS in assay [9] stood at 1.98 ± 0.9 nmol MDA/mg Protein.
In the case of `COc1ccc(Cl)cc1C(=O)NCCc1ccc(S(=O)(=O)NC(=O)NC2CCCCC2)cc1` [glibenclamide, reference compound], the GPx in assay [1] came to 7.80 ± 1.6 nmol NADPH/min/mg Protein. Also, in assay [2], the GSH worked out at 89.52 ± 4.74 GSH/mg Protein. Further, the “Blood Glucose Level” value is listed as 2.00 ± 1.85 mg/mL in assay [3] (day 0); 1.54 ± 1.68 mg/mL in assay [3] (day 5); 1.37 ± 1.20 mg/mL in assay [3] (day 10); 0.94 ± 1.20 mg/mL in assay [3] (day 15, 10 mg/kg/day); 0.94 ± 1.20 mg/mL in assay [3] (day 15, listed as glibencamide, 10 mg/kg/day). In addition, in assay [4], the SOD worked out at 5.91 ± 0.3 SOD/mg Protein. In assay [5], the “AChE activity, Cerebellum” value is given as 50 ± 1.20 µmol AcSCh/h/mg of protein. Besides, the “AChE activity, Cerebral Cortex” value in [5] is on record as 55 ± 2.06 µmol AcSCh/h/mg of protein. In assay [5], the “AChE activity, Hippocampus” value is 43 ± 1.10 µmol AcSCh/h/mg of protein. In addition, in assay [5], the “AChE activity, Hypothalamus” value is listed as 50 ± 2.15 µmol AcSCh/h/mg of protein. Further, in assay [5], the “AChE activity, Striatum” value is given as 46 ± 1.59 µmol AcSCh/h/mg of protein. In assay [6], this compound registered a CAT of 6.45 ± 3.9 E/min/mg Protein. The compound further registered an AChE activity in assay [7] of 45 ± 2.01 %. Besides, the “Variations in Body Weight” value came out at 180.11 ± 1.90 g in assay [8] (day 0), 169.54 ± 2.41 g in [8] (day 5), 171.23 ± 2.07 g in [8] (day 10) and 179.50 ± 1.40 g in assay [8] (day 15). This compound yielded a TBARS in assay [9] of 1.55 ± 0.8 nmol MDA/mg Protein.
In turn, `COc1cc2c3c(c1OC)-c1ccccc1C[C@H]3N(C)CC2` [nuciferine] gave a GPx in assay [1] of 7.98 ± 0.9 nmol NADPH/min/mg Protein. The compound further showed a GSH in assay [2] of 86.96 ± 0.7 GSH/mg Protein. The “Blood Glucose Level” value in assay [3] (day 0) is given as 2.05 ± 3.85 mg/mL; in [3] (day 5), 1.64 ± 2.51 mg/mL; in [3] (day 10), 1.42 ± 1.23 mg/mL; in assay [3] (day 15, 10 mg/kg/day), 1.00 ± 1.45 mg/mL. In assay [4], the SOD stood at 7.1 ± 0.2 SOD/mg Protein. For the same compound, in [5], the “AChE activity, Cerebellum” value is reported as 53 ± 1.70 µmol AcSCh/h/mg of protein. In [5], the “AChE activity, Cerebral Cortex” value is 56 ± 1.41 µmol AcSCh/h/mg of protein. The “AChE activity, Hippocampus” value in [5] is recorded as 41 ± 1.10 µmol AcSCh/h/mg of protein. Also, the “AChE activity, Hypothalamus” value in assay [5] was 55 ± 3.20 µmol AcSCh/h/mg of protein. Besides, in [5], the “AChE activity, Striatum” value is 50 ± 1.90 µmol AcSCh/h/mg of protein. Also, the CAT in assay [6] stood at 6.16 ± 0.7 E/min/mg Protein. The AChE activity in [7] worked out at 42 ± 7.43 %. Also, the “Variations in Body Weight” value was 177.43 ± 4.19 g in assay [8] (day 0); 161.97 ± 2.21 g in [8] (day 5); 173.22 ± 2.67 g in [8] (day 10); 182.33 ± 3.05 g and 177.33 ± 3.05 g in assay [8] (day 15, 10 mg/kg/day). For the same compound, the TBARS in [9] turned out to be 1.60 ± 0.8 nmol MDA/mg Protein.
